Like-named read-outs stand apart in the source and are kept apart here.
How the values were obtained:
PDE5A3 = PDE5A3 (Homo sapiens, UniProt O76074); test: In vitro PDE selectivity assay (SPA), PDE5A3; type: biochemical; conditions: hPDE5A3; read-out: PDE 5A3 (expressed as pIC50) (converted)
Description: (§1) Rat recombinant PDE10A (rPDE10A2) was expressed in Sf9 cells using a recombinant rPDE10A baculovirus construct. Cells were harvested after 48 h of infection and the rPDE10A protein was purified by metal chelate chromatography on Ni-sepharose 6FF. Tested compounds were dissolved and diluted in 100% DMSO to a concentration 100 fold of the final concentration in the assay. Compound dilutions (0.4 μl) were added in 384 well plates to 20 μl of incubation buffer (50 mM Tris pH 7.8, 8.3 mM MgCl2, 1.7 mM EGTA). 10 μl of rPDE10A enzyme in incubation buffer was added and the reaction was started by addition of 10 μl substrate to a final concentration of 60 nM cAMP and 0.008 μCi ^3H-cAMP. The reaction was incubated for 60 minutes at room temperature. After incubation, the reaction was stopped with 20 μl of stop solution consisting of 17.8 mg/ml PDE SPA (scintillation proximity assay) beads. After sedimentation of the beads during 30 minutes the radioactivity was measured in a Perkin Elmer Topcount scintillation counter and results were expressed as cpm. For blanc values the enzyme was omitted from the reaction and replaced by incubation buffer. Control values were obtained by addition of a final concentration of 1% DMSO instead of compound. The same assay principle is applied for the measurement of the affinity of the compound for other members of the PDE family with appropriate modifications in incubation buffer, substrate concentration, incubation time and stop solution. An overview of the different protocols is presented in table A. A best fit curve is fitted by a minimum sum of squares method to the plot of % of control value substracted with blanc value versus compound concentration and the half maximal inhibitory concentration (IC50) value is derived from this curve.
(§2) The compounds of the invention are generally selective for PDE10 compared to other PDEs and there are a few that also have affinity for PDE1B1, 4D3 and 5A3.

[1] = target: other members of the PDE family (Homo sapiens, UniProt Q13946); test: In vitro PDE selectivity assay (SPA), other members of the PDE family (protocols in Table A); type: biochemical; conditions: hPDE7A1; read-out: PDE 7A (expressed as pIC50) (converted)
Outline: (§3)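 Inhibition of each PDE isoform was measured by scintillation proximity assay with ³H-cyclic nucleotide substrate, using incubation buffer, substrate concentration, incubation time and stop solution adapted per isoform. Compounds were tested in dose-response against 1% DMSO controls and enzyme-free blanks. IC50 came from a least-squares fit of blank-subtracted % of control versus concentration.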

[2] = target: other members of the PDE family (Homo sapiens, UniProt O00408); test: as above; type: biochemical; conditions: hPDE2A; read-out: PDE 2A (expressed as pIC50) (converted)
Outline: as §3

[3] = target: other members of the PDE family (Homo sapiens, UniProt Q9HCR9); test: as above; type: biochemical; conditions: hPDE11A4; read-out: PDE 11A4 (expressed as pIC50) (converted)
Outline: as §3

[4] = target: other members of the PDE family (Homo sapiens, UniProt O76083); test: as above; type: biochemical; conditions: hPDE9A; read-out: PDE 9A (expressed as pIC50) (converted)
Outline: as §3

[5] = target: other members of the PDE family (Homo sapiens, UniProt Q14432); test: as above; type: biochemical; conditions: hPDE3A; read-out: PDE 3A (expressed as pIC50) (converted)
Outline: as §3

PDE10 = target: T1, PDE10 (Rattus norvegicus, UniProt Q9QYJ6); test: PDE10 occupancy ([3H]-MP-10, striatum); type: in vivo; conditions: for ED50 / receptor occupancy at 10 mg/kg: rat, sc; for ED50: dose response, subcutaneous administration, read-out: PDE10 in vivo occupancy ED50 sc; for receptor occupancy at 10 mg/kg: single dose 10 mg/kg, subcutaneous, read-out: SD sc % occupancy at 10 mg/kg
T1 construct: from tissue; host or cells: rat brain sections, striatum (in vivo dosing, ex vivo autoradiography)
T1 sequence (Q9QYJ6 1-794): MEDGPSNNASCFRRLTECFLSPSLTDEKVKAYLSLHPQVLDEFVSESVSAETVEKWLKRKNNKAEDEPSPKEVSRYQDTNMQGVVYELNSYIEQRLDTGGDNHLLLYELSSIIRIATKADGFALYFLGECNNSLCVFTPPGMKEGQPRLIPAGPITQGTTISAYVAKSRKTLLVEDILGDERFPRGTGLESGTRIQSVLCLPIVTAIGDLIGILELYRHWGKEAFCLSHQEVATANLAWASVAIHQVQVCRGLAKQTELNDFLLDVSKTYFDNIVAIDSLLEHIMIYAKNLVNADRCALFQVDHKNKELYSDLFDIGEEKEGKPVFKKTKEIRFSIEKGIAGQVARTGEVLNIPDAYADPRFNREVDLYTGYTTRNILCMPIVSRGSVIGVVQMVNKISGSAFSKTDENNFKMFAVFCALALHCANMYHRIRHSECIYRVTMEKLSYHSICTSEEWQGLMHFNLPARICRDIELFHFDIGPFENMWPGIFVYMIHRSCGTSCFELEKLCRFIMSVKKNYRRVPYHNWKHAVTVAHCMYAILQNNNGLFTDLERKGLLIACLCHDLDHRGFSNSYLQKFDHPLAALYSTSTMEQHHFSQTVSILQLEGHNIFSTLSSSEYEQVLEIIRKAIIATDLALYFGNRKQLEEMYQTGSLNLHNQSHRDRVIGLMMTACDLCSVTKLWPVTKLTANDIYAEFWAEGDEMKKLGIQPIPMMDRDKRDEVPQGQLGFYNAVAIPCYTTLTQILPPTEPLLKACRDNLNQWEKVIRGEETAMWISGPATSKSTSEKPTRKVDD
Description: Dose-response or single dose experiments were performed to measure PDE10 occupancy 1 hour after subcutaneous (s.c.) or oral (p.o.) administration. Male Wistar rats (200 g) were treated by s.c. or p.o. administration of various PDE10 inhibitors. The PDE10 radioligand [^3H]-MP-10 (10 μCi/animal) was injected intravenously (i.v.) 30 minutes before sacrifice. Brains were immediately removed from the skull and rapidly frozen. Twenty μm-thick brain sections were cut using a cryostat-microtome, thaw-mounted on microscope slides and loaded in a β-imager to quantify PDE10 occupancy in the striatum.

PDE4D3 = PDE4D3 (Homo sapiens, UniProt Q08499); test: In vitro PDE selectivity assay (SPA), PDE4D3; type: biochemical; conditions: hPDE4D3; read-out: PDE 4D3 (expressed as pIC50) (converted)
Description: as §1, §2

[6] = target: T2, Rat recombinant PDE10A (rPDE10A2) (Rattus norvegicus, UniProt Q9QYJ6); test: In vitro assay PDE10A (SPA, 3H-cAMP); type: biochemical
T2 construct: inferred from the Ni metal chelate purification; made in house; host or cells: Sf9 insect cells (baculovirus)
T2 sequence (Q9QYJ6 1-794): T1 sequence (Q9QYJ6 1-794)
Outline: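 Rat PDE10A2 expressed in Sf9 cells and Ni-purified; incubated with 60 nM cAMP plus 0.008 μCi 3H-cAMP in 50 mM Tris pH 7.8, 8.3 mM MgCl2, 1.7 mM EGTA for 60 min at room temperature. Product quantified by scintillation proximity counting; final DMSO 1%.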

[7] = system: apomorphine-induced stereotypy in rats; test: Apomorphine-induced stereotypy in rats (APO); type: in vivo; conditions: Rattus norvegicus, ≧: active in 30% of the animals at the indicated dose, ≦: active in 60%
Description: Apomorphine (1.0 mg/kg, i.v.)-induced stereotypy (compulsive sniffing, licking, chewing) was scored every 5 min over the first hour after injection of apomorphine, following a 1 hour interval pre-treatment with the test compound. The score system was: (3) pronounced, (2) moderate, (1) slight, and (0) absent.

[8] = Table 4 in vitro selectivity, read-out: PDE 10A2 (expressed as pIC50) (converted)
[9] = pIC50 corresponds to the −log IC50 expressed in mol/L, read-out: PDE10A2 pIC50 (converted)
[10] = dose at which 50% of the tested animals show the effect

Sequence of other members of the PDE family (Homo sapiens, UniProt Q9HCR9) (Q9HCR9 whole entry): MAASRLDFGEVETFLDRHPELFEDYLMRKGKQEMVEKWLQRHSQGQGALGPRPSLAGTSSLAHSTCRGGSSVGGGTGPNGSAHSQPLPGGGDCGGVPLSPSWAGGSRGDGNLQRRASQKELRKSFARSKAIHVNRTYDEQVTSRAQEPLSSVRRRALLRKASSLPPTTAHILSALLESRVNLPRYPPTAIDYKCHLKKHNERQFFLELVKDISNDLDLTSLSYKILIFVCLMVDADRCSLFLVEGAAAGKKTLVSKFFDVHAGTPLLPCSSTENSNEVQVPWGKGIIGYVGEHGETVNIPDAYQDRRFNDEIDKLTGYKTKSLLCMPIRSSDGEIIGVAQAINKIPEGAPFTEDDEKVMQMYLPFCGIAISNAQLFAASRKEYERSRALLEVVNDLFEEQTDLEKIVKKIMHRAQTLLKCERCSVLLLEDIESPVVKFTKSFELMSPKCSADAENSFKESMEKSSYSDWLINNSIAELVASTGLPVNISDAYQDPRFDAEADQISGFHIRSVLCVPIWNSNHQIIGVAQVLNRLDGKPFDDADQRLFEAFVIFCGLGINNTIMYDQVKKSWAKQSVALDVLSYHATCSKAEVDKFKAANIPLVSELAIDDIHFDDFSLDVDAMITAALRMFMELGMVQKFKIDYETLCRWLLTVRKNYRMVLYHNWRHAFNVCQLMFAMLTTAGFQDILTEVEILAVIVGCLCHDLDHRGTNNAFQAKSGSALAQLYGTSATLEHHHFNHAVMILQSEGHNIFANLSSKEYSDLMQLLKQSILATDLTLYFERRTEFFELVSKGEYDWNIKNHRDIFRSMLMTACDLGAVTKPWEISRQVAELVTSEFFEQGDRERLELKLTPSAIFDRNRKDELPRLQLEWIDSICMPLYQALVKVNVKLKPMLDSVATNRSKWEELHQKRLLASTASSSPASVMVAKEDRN
Sequence of other members of the PDE family (Homo sapiens, UniProt O76083) (O76083 whole entry): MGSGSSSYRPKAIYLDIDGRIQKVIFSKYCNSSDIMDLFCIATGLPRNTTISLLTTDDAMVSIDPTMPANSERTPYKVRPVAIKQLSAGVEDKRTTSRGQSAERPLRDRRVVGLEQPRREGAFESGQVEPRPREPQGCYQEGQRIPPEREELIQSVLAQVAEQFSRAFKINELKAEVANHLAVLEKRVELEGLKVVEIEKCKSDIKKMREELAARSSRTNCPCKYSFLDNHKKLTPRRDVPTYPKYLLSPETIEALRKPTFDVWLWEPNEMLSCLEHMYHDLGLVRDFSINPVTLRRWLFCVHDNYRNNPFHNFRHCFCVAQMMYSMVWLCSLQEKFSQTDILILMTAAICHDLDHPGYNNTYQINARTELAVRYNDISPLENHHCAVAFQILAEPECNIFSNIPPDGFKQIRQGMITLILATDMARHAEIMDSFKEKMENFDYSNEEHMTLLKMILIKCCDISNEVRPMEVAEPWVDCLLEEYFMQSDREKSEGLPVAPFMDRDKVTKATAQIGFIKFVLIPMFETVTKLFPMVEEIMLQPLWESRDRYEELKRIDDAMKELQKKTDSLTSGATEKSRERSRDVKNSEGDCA
Sequence of other members of the PDE family (Homo sapiens, UniProt Q13946) (Q13946 whole entry, canonical isoform): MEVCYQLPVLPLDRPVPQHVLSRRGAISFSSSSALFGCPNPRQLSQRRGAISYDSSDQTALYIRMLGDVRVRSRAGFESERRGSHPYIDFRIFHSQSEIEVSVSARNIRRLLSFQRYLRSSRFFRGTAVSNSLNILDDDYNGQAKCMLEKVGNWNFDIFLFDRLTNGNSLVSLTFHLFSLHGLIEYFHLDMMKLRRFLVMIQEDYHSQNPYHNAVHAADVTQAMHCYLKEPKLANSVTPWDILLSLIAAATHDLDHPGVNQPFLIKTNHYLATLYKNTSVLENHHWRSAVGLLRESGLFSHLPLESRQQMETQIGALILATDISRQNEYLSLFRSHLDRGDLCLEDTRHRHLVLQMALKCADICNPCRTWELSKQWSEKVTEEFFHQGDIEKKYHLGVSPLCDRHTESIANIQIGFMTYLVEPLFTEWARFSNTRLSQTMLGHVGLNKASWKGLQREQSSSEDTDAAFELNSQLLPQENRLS
Sequence of other members of the PDE family (Homo sapiens, UniProt O00408) (O00408 whole entry): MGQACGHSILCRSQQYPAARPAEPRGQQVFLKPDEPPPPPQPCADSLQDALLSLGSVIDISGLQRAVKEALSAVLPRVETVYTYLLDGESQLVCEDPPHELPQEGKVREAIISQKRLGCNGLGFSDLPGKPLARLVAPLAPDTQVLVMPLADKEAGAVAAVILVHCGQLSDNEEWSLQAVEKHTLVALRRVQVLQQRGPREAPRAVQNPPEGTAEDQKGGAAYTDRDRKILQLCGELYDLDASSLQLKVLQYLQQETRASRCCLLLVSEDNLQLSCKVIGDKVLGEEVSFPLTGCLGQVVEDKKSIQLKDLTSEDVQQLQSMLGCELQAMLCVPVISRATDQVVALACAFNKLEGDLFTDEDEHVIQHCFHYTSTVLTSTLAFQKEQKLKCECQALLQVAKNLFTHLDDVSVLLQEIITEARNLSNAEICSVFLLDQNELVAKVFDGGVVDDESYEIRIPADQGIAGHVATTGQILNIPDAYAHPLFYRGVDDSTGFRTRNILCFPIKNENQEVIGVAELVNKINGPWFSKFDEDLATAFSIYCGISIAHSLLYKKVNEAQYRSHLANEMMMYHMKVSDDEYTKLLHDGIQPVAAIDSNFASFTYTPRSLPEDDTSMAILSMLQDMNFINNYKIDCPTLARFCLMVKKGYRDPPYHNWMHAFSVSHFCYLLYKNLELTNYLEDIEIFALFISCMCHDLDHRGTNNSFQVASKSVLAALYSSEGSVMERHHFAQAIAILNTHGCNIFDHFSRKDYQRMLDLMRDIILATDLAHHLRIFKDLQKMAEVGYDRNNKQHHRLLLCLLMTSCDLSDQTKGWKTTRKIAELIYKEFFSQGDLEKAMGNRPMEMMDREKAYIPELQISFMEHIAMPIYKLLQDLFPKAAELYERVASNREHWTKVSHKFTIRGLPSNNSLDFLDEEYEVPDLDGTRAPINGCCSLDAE
Sequence of other members of the PDE family (Homo sapiens, UniProt Q14432) (Q14432 whole entry): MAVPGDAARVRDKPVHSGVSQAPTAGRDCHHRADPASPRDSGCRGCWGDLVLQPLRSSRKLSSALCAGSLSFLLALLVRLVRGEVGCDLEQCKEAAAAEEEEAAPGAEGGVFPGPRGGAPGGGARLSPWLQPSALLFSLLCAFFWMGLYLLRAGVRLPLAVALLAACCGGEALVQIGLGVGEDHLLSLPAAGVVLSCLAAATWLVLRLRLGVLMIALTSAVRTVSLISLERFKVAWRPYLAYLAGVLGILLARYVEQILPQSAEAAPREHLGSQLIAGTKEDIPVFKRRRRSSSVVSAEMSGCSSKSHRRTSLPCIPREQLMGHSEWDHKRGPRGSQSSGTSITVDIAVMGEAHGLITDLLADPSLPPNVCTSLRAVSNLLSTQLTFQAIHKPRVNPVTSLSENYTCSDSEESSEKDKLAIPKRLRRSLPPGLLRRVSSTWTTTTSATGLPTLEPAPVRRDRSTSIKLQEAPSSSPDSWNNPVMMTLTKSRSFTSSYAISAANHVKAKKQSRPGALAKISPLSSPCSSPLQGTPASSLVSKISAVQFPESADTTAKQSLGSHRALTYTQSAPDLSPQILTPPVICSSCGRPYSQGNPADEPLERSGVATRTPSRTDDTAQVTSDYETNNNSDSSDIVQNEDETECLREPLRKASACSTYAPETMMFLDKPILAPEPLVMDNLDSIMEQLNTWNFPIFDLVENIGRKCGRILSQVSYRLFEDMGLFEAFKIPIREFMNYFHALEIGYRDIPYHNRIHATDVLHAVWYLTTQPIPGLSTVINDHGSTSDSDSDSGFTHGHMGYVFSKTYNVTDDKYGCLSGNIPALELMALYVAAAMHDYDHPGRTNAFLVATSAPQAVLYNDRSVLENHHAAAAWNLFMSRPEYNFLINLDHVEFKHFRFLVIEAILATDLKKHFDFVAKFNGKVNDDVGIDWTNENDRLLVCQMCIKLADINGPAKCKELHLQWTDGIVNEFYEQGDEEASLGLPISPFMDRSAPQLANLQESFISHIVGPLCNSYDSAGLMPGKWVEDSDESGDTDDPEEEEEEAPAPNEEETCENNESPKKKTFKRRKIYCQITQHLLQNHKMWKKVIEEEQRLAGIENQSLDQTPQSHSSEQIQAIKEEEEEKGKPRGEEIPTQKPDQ
Sequence of PDE4D3 (Q08499 1-673 isoform Q08499-2): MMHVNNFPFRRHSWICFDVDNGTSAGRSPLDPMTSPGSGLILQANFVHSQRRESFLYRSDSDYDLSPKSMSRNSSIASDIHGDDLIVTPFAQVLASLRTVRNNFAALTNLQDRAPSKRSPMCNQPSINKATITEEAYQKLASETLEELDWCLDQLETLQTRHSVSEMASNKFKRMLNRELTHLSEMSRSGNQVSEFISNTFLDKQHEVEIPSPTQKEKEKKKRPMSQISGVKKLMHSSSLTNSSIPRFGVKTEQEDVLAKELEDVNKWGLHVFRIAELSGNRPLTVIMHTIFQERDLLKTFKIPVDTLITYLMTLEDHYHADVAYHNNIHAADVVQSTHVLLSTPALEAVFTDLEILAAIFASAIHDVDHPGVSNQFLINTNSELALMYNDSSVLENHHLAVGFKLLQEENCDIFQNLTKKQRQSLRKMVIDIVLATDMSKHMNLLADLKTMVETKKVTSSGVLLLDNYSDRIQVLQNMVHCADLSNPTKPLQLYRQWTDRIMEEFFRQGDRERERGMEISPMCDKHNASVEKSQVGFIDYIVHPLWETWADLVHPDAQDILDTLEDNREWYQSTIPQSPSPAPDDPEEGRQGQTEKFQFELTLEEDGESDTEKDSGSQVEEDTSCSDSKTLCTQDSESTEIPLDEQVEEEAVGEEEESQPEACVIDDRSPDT

Row | IC50 (PDE5A3) [µM] | IC50 [1] [µM] | IC50 [2] [µM] | IC50 [3] [µM] | IC50 [4] [µM] | IC50 [5] [µM] | ED50 (PDE10) [mg/kg] | IC50 (PDE4D3) [µM] | IC50 [6, 8] [µM] | IC50 [6, 9] [µM] | receptor occupancy at 10 mg/kg (PDE10) [%] | % occupancy at the highest dose tested (PDE10; dose response sc, data between brackets) [%] | SMILES | ED50 [7, 10] [mg/kg] | ED50 ([7]; po, * compound not soluble, tested orally as a suspension) [mg/kg]
1 | 7.94 | > 10 | > 10 | > 10 | > 10 | > 10 | 2 | > 10 | 0.0263 | 0.0263 | – | – | COC(C)(C)Cc1ccc(-c2c(C)nc3c(N4CCOCC4)ccnn23)cn1 [compound 3, 3-[6-(2-methoxy-2-methylpropyl)-3-pyridinyl]-2-methyl-8-(4-morpholinyl)-imidazo[1,2-b]pyridazine] | 0.8 | –
2 | > 10 | > 10 | > 10 | > 10 | > 10 | > 10 | – | > 10 | 0.12 | 0.12 | 52 | – | COCCOc1ccc(-c2c(C)nc3c(N4CCOCC4)ccnn23)cn1 [compound 16, 3-[6-(2-methoxyethoxy)-3-pyridinyl]-2-methyl-8-(4-morpholinyl)-imidazo[1,2-b]pyridazine] | 3.1 | –
3 | > 10 | > 10 | > 10 | > 10 | > 10 | > 10 | – | > 10 | 0.107 | 0.107 | 57 | – | Cc1nc2c(N3CCOCC3)ccnn2c1-c1ccc(N2CCOCC2)nc1 [compound 19, 2-methyl-8-(4-morpholinyl)-3-[6-(4-morpholinyl)-3-pyridinyl]-imidazo[1,2-b]pyridazine] | 5 | –
4 | 3.47 | 28.2 | 5.89 | 6.76 | > 50.1 | > 50.1 | 0.94 | 2.75 | 0.0562 | 0.0562 | – | – | COCCc1ccc(-c2c(C3CC3)nc3c(N4CCOCC4)ccnn23)cn1 [compound 22, 2-cyclopropyl-3-[6-(2-methoxyethyl)-3-pyridinyl]-8-(4-morpholinyl)-imidazo[1,2-b]pyridazine] | 0.5 | –
5 | 13.8 | 25.7 | 26.9 | 30.2 | > 100 | 30.2 | 1.1 | 13.2 | 0.0832 | 0.0832 | – | – | CCc1ccc(-c2c(C)nc3c(N4CCOCC4)ccnn23)cn1 [compound 28, 3-(6-ethyl-3-pyridinyl)-2-methyl-8-(4-morpholinyl)-imidazo[1,2-b]pyridazine] | 1.2 | –
6 | > 10 | > 10 | > 10 | > 10 | > 10 | > 10 | > 10 | > 10 | 0.123 | 0.123 | – | 6 | Cc1nc2c(N3CCOCC3)ccnn2c1-c1ccc(N2CCNCC2)nc1 [compound 30, 2-methyl-8-(4-morpholinyl)-3-[6-(1-piperazinyl)-3-pyridinyl]-imidazo[1,2-b]pyridazine] | 7.1 | –
7 | > 10 | > 10 | > 10 | > 10 | > 10 | 7.41 | – | > 10 | 0.038 | 0.038 | 67 | – | Cc1nc2c(N3CCOCC3)ccnn2c1-c1cnn(CC(C)C)c1 [compound 35, 2-methyl-3-[1-(2-methylpropyl)-1H-pyrazol-4-yl]-8-(4-morpholinyl)-imidazo[1,2-b]pyridazine] | 5 | –
8 | 2.57 | > 10 | > 10 | 5.89 | > 10 | 7.41 | – | > 10 | 0.0182 | 0.0182 | – | – | Cc1nc2c(-c3ccncc3)ccnn2c1-c1cnn(CC(F)(F)F)c1 [compound 135, 2-methyl-8-(4-pyridinyl)-3-[1-(2,2,2-trifluoroethyl)-1H-pyrazol-4-yl]-imidazo[1,2-b]pyridazine] | – | 3.1
9 | 0.646 | 5.89 | 3.98 | 1.95 | > 10 | 1.45 | – | 5.13 | 0.0174 | 0.0174 | – | – | COC(C)(C)Cn1cc(-c2c(C3CC3)nc3c(-c4ccncc4)ccnn23)cn1 [compound 143, 2-cyclopropyl-3-[1-(2-methoxy-2-methylpropyl)-1H-pyrazol-4-yl]-8-(4-pyridinyl)-imidazo[1,2-b]pyridazine] | 1.2 | –

— patent publication US20120220581A1, “IMIDAZO[1,2-b]PYRIDAZINE DERIVATIVES AND THEIR USE AS PDE10 INHIBITORS” (Janssen-Cilag, S.A., priority 2009, published 2012)
